This note sets out measurements from ChEMBL document CHEMBL5579878, “Allosteric Activation of Protein Phosphatase 5 with Small Molecules” (J Med Chem, 2024).

By half-life is commonly meant the time in which the quantity being followed falls by half. A lower half-life goes with rapid decline. In general, IC50 refers to the concentration at which inhibition is half-maximal.

A short description of data set [1]: Half-life in Sprague-Dawley rat at 10 mg/kg, ip measured after 8 hrs by LC-MS/MS analysis. Type of data set: ADME, organism-based. To be noted: in vivo.
The subject of data set [2] is HCT-116. The data set can be described thus: Downregulation of AT13387-induced HSP40 expression in human HCT-116 cells at 50 uM incubated for 24 hrs by Western blot analysis. Type of data set: functional, cell-based.
The subject of data set [3] is T1, Serine/threonine-protein phosphatase 5 (Homo sapiens), P53041 [K430A].
T1 sequence (whole entry): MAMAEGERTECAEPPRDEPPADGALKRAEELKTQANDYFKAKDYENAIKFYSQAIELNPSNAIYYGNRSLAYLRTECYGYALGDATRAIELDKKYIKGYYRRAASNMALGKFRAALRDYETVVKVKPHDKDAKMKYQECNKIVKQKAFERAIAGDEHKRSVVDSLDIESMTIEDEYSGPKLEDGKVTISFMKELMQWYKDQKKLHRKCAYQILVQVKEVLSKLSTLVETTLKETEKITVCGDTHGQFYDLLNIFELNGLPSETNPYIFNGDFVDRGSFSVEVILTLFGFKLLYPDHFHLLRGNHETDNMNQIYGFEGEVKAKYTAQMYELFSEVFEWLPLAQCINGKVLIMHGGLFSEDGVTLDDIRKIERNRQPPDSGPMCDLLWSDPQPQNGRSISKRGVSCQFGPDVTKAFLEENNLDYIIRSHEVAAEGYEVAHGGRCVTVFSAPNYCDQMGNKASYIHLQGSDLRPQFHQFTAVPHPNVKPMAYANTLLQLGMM
The data set can be described thus: Activation of PP5 K430A mutant (unknown origin) using pNPP as substrate assessed as increase in phosphatase activity at 10 to 200 uM incubated for 30 mins by spectrophotometric analysis. As to conditions: dose 10-200 µM.

Data set [4] deals with SW-620. The data set can be described thus: Enhancement of HSP90 inhibitor AT13387-induced antiproliferative activity against human SW620 cells assessed as fold change in HSP90 inhibitor AT13387 IC50 at 50 uM incubated for 72 hrs by CCK8 assay. The data set is classed as functional. Background: Formazan colour is commonly taken as a measure of viable cells.
For data set [5], the system named is HCT-116. The data set can be described thus: Downregulation of AT13387-induced HSP40 mRNA expression in human HCT-116 cells at 50 uM incubated for 24 hrs by qRT-PCR analysis. The data set is classed as functional, cell-based.
The test system of data set [6] is SW-620. In words: Enhancement of HSP90 inhibitor AT13387-induced antiproliferative activity against human SW620 cells assessed as HSP90 inhibitor AT13387 IC50 at 50 uM incubated for 72 hrs by CCK8 assay (reference value: 122.3 nM). The data set is classed as functional, cell-based. As to conditions: SW-620, 72 h.
In data set [7] the target is T2, Tyrosine-protein phosphatase non-receptor type 2 (Homo sapiens) (UniProt P17706).
T2 sequence (whole entry): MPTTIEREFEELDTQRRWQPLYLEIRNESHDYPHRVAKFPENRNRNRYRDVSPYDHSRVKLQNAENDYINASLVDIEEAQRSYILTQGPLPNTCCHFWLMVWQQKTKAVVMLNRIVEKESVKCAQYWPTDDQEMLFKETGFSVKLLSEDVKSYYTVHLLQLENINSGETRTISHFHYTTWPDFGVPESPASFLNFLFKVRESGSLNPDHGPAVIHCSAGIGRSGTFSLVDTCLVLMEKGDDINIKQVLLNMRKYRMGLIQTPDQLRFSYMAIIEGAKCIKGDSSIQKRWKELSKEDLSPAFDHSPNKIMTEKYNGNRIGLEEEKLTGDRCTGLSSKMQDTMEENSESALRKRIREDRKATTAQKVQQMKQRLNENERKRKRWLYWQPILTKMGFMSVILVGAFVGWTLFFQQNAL
In words: Inhibition of PTPN2 (unknown origin) using DiFMUP as substrate at 0.01 to 1000 uM. To be noted: dose 0.01-1000 µM.

For data set [8], the target named is T3, Serine/threonine-protein phosphatase 5 (Homo sapiens) (UniProt P53041).
T3 sequence (whole entry): T1 sequence (whole entry) with A430K
In words: Activation of PP5 in human HCT-116 cells assessed as decrease in intracellular S13 residue phosphorylated CDC37 level at 100 uM by Western blot analysis. The data set is classed as cell-based. To be noted: filed as activator, time <= 24.0 hrs, TDE = time-dependent effect. For orientation: In western blotting, separated proteins are transferred to a membrane and probed.

Data set [9] relates to T4, Serine/threonine-protein phosphatase 5 (Homo sapiens), P53041 [V429A].
T4 sequence (whole entry): T1 sequence (whole entry) with V429A, A430K
The data set can be described thus: Activation of PP5 V429A mutant (unknown origin) using pNPP as substrate assessed as increase in phosphatase activity at 10 to 200 uM incubated for 30 mins by spectrophotometric analysis. As to conditions: dose 10-200 µM.

Data set [10] addresses T3, Serine/threonine-protein phosphatase 5 (Homo sapiens). In words: Binding affinity to His-tagged human PP5 TPR domain extracted from Escherichia coli BL21 by ITC analysis. A general note: Isothermal titration calorimetry measures the heat released or taken up as one component is titrated into another.

Residue numbers refer to the chain shown, from its start. Calls of active or inactive are those of the source. The calls are words filed in the database; no cut-off is given here.

Turning to `N=c1oc2cc(F)cc(F)c2cc1C(N)=S`, the half-life in [1] was 1.59 h. The result in the data set with HCT-116 [2] and in the data set on HCT-116 [5] was Active. Moreover, the outcome in data set [3], in data set [9] and in [10] was inactive. The “fold change (FC)” value with SW-620 [4] was 2. For the same compound, the 50% inhibitory concentration (IC50) in the data set on SW-620 [6] turned out to be 54.4 nM. Also, in data set [7], the inhibition entry is “inactive”. Also, the Activity entry in data set [8] is “Tde”.
